Assay results from publication PMC12518634, “The noncanonical function of liver-type phosphofructokinase potentiates the efficacy of HDAC inhibitors in cancer” (Signal Transduction and Targeted Therapy, 2025).
Like-named read-outs stand apart in the source and are kept apart here.

Assays:
783C-6 = test: High-throughput drug screen, CellTiter-Glo viability, 72 h; type: cell-based, human; design: AUC: scale not given here; details: for DSS: DSS of DSRT analysis; for AUC: area under the dose-response curve; for MIN: minimum of dose-response curve; for SLOPE: slope of fitted dose-response curve; for EC50: 72 h, read-out: EC50
Outline: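 Cholangiocarcinoma cells were seeded at 3000/well in 384-well plates and dosed after 24 h. Drugs were tested at 10, 1, 0.1, 0.01 and 0.001 μM in duplicate for 72 h, with viability read by CellTiter-Glo luminescence.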

1405R3 = test: as above; type: cell-based, human; design: AUC: scale not given here; details: for AUC: area under the dose-response curve; for MIN: lower asymptote of fitted dose-response curve; for SLOPE: slope of fitted dose-response curve; for EC50: CellTiter-Glo viability, 72 h, fitted dose-response curve, Min.Conc.tested 1, Max.Conc.tested 10000, GI50, read-out: EC50
Outline: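 Responses are drug sensitivity scores (efficacy cutoff ≥10), fitted from CellTiter-Glo luminescence. Each drug was given at five concentrations (10 to 0.001 μM, tenfold steps) in duplicate for 72 h. Cells were plated at 3000/well 24 h before dosing.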

[1] = 1405R3 DSRT analysis, drug sensitivity score
[2] = Homo sapiens, 1405R3 DSRT analysis

SMILES | DSS (783C-6; 783C-6 cells) | AUC (783C-6; 783C-6 cells) | MIN (783C-6; 783C-6 cells) | AUC (1405R3; 1405R3 DSRT analysis) | DSS (1405R3; [1]) | MIN (1405R3; 1405R3 DSRT analysis) | SLOPE (783C-6; 783C-6 cells) | SLOPE (1405R3; 1405R3 DSRT analysis) | EC50 (783C-6; Homo sapiens) | EC50 (1405R3; [2]) | DSS (1405R3) | EC50 (783C-6; 783C-6 cells, DSRT analysis, CellTiter-Glo viability, concentrations tested 1 to 10000 (unit inferred), GI50) | EC50 (1405R3; 1405R3 DSRT analysis)
COc1cccc2c1c(O)c(C(=O)N(C)c1ccc(C(F)(F)F)cc1)c(=O)n2C [Tasquinimod] | 0 | 1.7 | 96 | 0.1 | 0 | 100 |  |  |  |  |  |  | 
CCN(c1cc(-c2ccc(CN3CCOCC3)cc2)cc(C(=O)NCc2c(C)cc(C)[nH]c2=O)c1C)C1CCOCC1 [Tazemetostat] | 0 | 14.4 | 90.7 | 12.2 | 0 | 92.1 |  |  |  |  |  |  | 
CCCCCCCCCCCCCC(=S)NCCCC[C@H](NC(=O)OCc1ccccc1)C(=O)Nc1ccccc1 [Thiomyristoyl] | 0 | 2.1 | 92.9 | 18.7 | 0 | 87.9 | -1 | -0.1 |  |  |  |  | 
Cn1c(CCCCCCC(=O)NO)nc2cc(N(CCCl)CCCl)ccc21 [Tinostamustine] | 7.1 | 62.6 | 3.7 | 56 | 6.3 | 10 |  |  | 2260 nM | 2420 nM |  |  | 
Cc1cc(Nc2cc(N3CCN(C)CC3)nc(Sc3ccc(NC(=O)C4CC4)cc3)n2)[nH]n1 [Tozasertib] | 4.1 | 41.4 | 78.1 | 19.9 |  | 76.4 |  |  |  |  | 1.8 |  | 
O=C(CCCCCCC(=O)Nc1ccc([C@H]2O[C@@H](CSc3nc(-c4ccccc4)c(-c4ccccc4)o3)C[C@@H](c3ccc(CO)cc3)O2)cc1)NO [Tubacin] | 0 | 7.2 | 76.2 | 41.9 | 0 | 73.1 |  |  |  |  |  |  | 
CN1CCc2c(c3ccccc3n2Cc2ccc(C(=O)NO)cc2)C1.Cl [Tubastatin A HCl] | 0 | 2.4 | 92.1 | 3.3 | 0 | 94.8 | -1 | -0.5 |  |  |  |  | 
CN1CCc2c(c3ccccc3n2Cc2ccc(C(=O)NO)cc2)C1.O=C(O)C(F)(F)F [Tubastatin A TFA] | 0 | 24.4 | 86.5 | 17.4 | 0 | 88.8 | -0.1 | -0.1 |  |  |  |  | 
CN1CCc2c(c3ccccc3n2Cc2ccc(C(=O)NO)cc2)C1 [Tubastatin A] | 0 | 3.2 | 92.9 | 8.2 | 0 | 92.6 |  |  |  |  |  |  | 
Nc1cc(F)ccc1NC(=O)c1ccc(CNC(=O)/C=C/c2cccnc2)cc1 [Tucidinostat] | 6.5 | 59.3 | 25.1 | 73.3 | 7 | 44 |  |  | 1660 nM | 607 nM |  |  | 
CCCCNNC(=O)c1ccc(Br)cc1 [UF010] | 2.1 | 22.5 | 74.9 | 21.1 | 2 | 67.1 | -2.4 | -2.5 |  |  |  | 1280 nM | 2320 nM
COc1cc2nc(N3CCCC3)nc(NCCCCCN3CCCC3)c2cc1OC [UNC0379] | 3.2 | 30.1 | 55.3 | 39.7 | 1.9 | 76.2 | -2.5 | -0.4 |  |  |  |  | 
COc1cc2c(NC3CCN(C(C)C)CC3)nc(C3CCCCC3)nc2cc1OCCCN1CCCC1 [UNC0638] | 2 | 21.3 | 73.8 | 19.7 | 1.9 | 59.1 |  |  | 1540 nM | 3370 nM |  |  | 
